The record followed here is patent US4337207A, “Biologically active catecholamine derivatives” (Regents of the University of California, priority 1980, dated 1982).

One assay deals with S49 mouse lymphoma cells. As to the kind of experiment: cAMP formation in S49 lymphoma cells (β-adrenergic agonist activity). The class given is cell-based. The conditions noted are these: for EC50: Mus musculus, catecholamine derivative, read-out: KA (concentration of the catecholamine for approximately half maximal stimulation of cAMP concentration); for activity in words / activity greater than that of isoproterenol: S49 cell assay; for activity greater than that of isoproterenol: relative to isoproterenol. The text has this:
The in vitro testing of cAMP formation in S49 lymphoma cells is a well documented and accepted test for indicating and anticipating β-adrenergic activity in the mammalian body.
Such testing procedures and their significance has been set forth in a number of prior publications, e.g. Shear et al., J. Biol. Chem.; 251, 7572 (1976); Coffino, et al., In Vitro, 14, No. 1, 140 et.seq. (1978); and in Johnson, et al.; Molecular Pharmacology, 15, 16-27 (1978). The tests measure increased cyclic adenosine monophosphate (cAMP) concentration in the S49 cells. In Table 1, KA indicates the concentration of the catecholamine for approximately half maximal stimulation of cAMP concentration. Emax is a measure of the maximal response (cAMP concentration) of the S49 cells to the respective catecholamines regardless of how high the concentration of the catecholamines may become. The Table compares the response of the cells to the particular catecholamine derivatives with the cells' response to isoproterenol. Thus a measure of the relative biological activity can be obtained.

For the next assay, the system named is rats. As to the kind of experiment: blood pressure and heart rate changes in rats on administration of the drug. Format: in vivo. The conditions noted are these: rat, relative to isoproterenol.
A further assay concerns the target T1, S49 cells (Mus musculus, UniProt P18762).
T1 construct: endogenous in cells; host or cells: S49 lymphoma cells
The assay can be described thus: KD in S49 cells. Format: binding. The conditions noted are these: relative to isoproterenol. The text has this: (§1) A large dependence of activity on the length of the methylene chain i.e., (CH2)n is seen with the toluides (Compounds 10-14). Of the compounds noted, peak activity is seen in the case of n=4 (Compound 12), which has an activity approximately two orders of magnitude greater than that of isoproterenol.

For the next assay, the target named is T2, C6 cells (Rattus norvegicus, UniProt P18090).
T2 construct: endogenous in cells; host or cells: C6 cells
T2 sequence (P18090 whole entry): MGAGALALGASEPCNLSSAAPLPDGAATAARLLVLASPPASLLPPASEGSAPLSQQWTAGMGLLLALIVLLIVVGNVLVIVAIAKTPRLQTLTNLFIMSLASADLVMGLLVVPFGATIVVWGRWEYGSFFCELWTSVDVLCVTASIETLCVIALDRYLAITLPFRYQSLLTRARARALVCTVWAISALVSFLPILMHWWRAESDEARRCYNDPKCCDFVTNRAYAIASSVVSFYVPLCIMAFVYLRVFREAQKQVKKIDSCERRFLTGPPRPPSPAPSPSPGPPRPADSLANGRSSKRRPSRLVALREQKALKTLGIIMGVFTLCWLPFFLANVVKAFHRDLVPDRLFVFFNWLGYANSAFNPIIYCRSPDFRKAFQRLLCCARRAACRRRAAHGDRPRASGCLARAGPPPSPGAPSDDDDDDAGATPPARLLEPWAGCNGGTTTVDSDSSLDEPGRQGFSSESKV
The assay can be described thus: KD in C6 cells. Format: binding. The conditions noted are these: relative to isoproterenol.
Excerpt: as §1

T1 sequence (P18762 whole entry): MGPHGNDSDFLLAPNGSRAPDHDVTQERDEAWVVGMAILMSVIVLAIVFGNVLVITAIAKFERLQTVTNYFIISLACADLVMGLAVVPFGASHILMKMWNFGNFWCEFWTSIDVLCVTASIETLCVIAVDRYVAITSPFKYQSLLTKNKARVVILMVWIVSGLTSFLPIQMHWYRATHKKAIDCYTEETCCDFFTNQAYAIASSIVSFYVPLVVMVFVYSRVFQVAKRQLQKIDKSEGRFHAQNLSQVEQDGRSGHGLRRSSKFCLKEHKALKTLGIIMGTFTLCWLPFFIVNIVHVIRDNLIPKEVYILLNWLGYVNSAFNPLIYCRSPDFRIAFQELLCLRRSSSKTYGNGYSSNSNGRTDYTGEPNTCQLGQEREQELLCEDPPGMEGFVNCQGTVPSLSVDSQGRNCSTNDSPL

On to `CC(CCC(=O)O)NCC(O)c1ccc(O)c(O)c1` (stereo not shown) [Compound 6], for which the EC50 in the assay with S49 mouse lymphoma cells (S49 lymphoma cells) was 1600 nM.

`COc1ccc(NC(=O)CCCCC(C)NCC(O)c2ccc(O)c(O)c2)cc1` (stereo not shown) [Compound 16]: in the assay with S49 mouse lymphoma cells (S49 lymphoma cells), the EC50 worked out at 13 nM. The activity in words entry with S49 mouse lymphoma cells is “approximately the same activity as isoproterenol”.

For `Cc1ccc(NC(=O)CCCCC(C)NCC(O)c2ccc(O)c(O)c2)cc1` (stereo not drawn) [Compound 12, 6-(β-3,4-dihydroxyphenyl-β-hydroxy)-ethylamino Heptanoic Acid p-Toluide], the “times more active than isoproterenol” value in the assay with rats is listed as 50-70 times. For the same molecule, the “KD lower than for isoproterenol” value at S49 cells and at C6 cells was 2 orders of magnitude in each case. Further, in the assay on S49 mouse lymphoma cells (S49 lymphoma cells), the EC50 turned out to be 0.056 nM. Also, the activity in words result in the assay on S49 mouse lymphoma cells is “peak activity”.

On to `Cc1ccc(NC(=O)CCC(C)NCC(O)c2ccc(O)c(O)c2)cc1` (stereo not shown) [Compound 10], for which the EC50 in the assay on S49 mouse lymphoma cells (S49 lymphoma cells) worked out at 3.5 nM.

In the case of `CC(CCCCCC(=O)O)NCC(O)c1ccc(O)c(O)c1` (stereo not shown) [Compound 9], the EC50 in the assay on S49 mouse lymphoma cells (S49 lymphoma cells) was determined as 350 nM.

`Cc1ccc(NC(=O)CCCC(C)NCC(O)c2ccc(O)c(O)c2)cc1` (stereo not shown) [Compound 11]: the EC50 in the assay on S49 mouse lymphoma cells (S49 lymphoma cells) stood at 8 nM.

`Cc1ccc(NC(=O)CCCCCC(C)NCC(O)c2ccc(O)c(O)c2)cc1` (stereo not shown) [Compound 14]: the EC50 in the assay with S49 mouse lymphoma cells (S49 lymphoma cells) came to 22 nM.

In the case of `CC(CCCCC(=O)NC1CCCCC1)NCC(O)c1ccc(O)c(O)c1` (stereo not shown) [Compound 20], the EC50 in the assay on S49 mouse lymphoma cells (S49 lymphoma cells) came out at 0.26 nM.

Consider `CCCCNC(=O)CCCCC(C)NCC(O)c1ccc(O)c(O)c1` (stereo not shown) [Compound 19], for which, in the assay with S49 mouse lymphoma cells (S49 lymphoma cells), the EC50 came out at 0.18 nM.

`CCCCc1ccc(NC(=O)CCCCC(C)NCC(O)c2ccc(O)c(O)c2)cc1` (stereo not shown) [Compound 15]: the “activity greater than that of isoproterenol” value in the assay with S49 mouse lymphoma cells was “at least 3 orders of magnitude”.

On to `CC(C)NCC(O)c1ccc(O)c(O)c1` (racemic) [d,l-Isoproterenol, reference compound], for which the “KA of d,l-isoproterenol” value in the assay on S49 mouse lymphoma cells (S49 lymphoma cells, comparison with the derivative on the same table line) was determined as 45 pM.

Consider `CC(CCCCC(=O)O)NCC(O)c1ccc(O)c(O)c1` (stereo not drawn) [Compound 8, 6-(β-3,4-Dihydroxyphenyl-β-hydroxy)-ethylamino heptanoic acid], for which the EC50 in the assay on S49 mouse lymphoma cells (S49 lymphoma cells) came out at 350 nM.

As for `CC(CCCCC(=O)Nc1ccc(C(F)(F)F)cc1)NCC(O)c1ccc(O)c(O)c1` (stereo not shown) [Compound 17], the “activity greater than that of isoproterenol” value in the assay on S49 mouse lymphoma cells is given as “at least 3 orders of magnitude”.

Consider `CC(CCCC(=O)O)NCC(O)c1ccc(O)c(O)c1` (stereo not shown) [Compound 7], for which, in the assay on S49 mouse lymphoma cells (S49 lymphoma cells), the EC50 was determined as 370 nM.
